The target in experiment [1] is intracellular GCN2 (phosphorylation of the GCN2 substrate eIF2α) (Homo sapiens, UniProt Q9P2K8). Description: GCN2 cellular inhibition assay (AlphaScreen SureFire P-eIF2α Ser51, borrelidin-treated U2OS cells). The format is cell-based. To be noted: biomarker assay, phosphorylated eIF2α Ser51 in borrelidin-treated U2OS cells. Summed up: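 First, U2OS cells are plated and left overnight at 37 °C. Next, compounds (from 40 μM final, 4-fold steps) and 10 μM borrelidin are added for 1 h, cells lysed, and phospho-Ser51 eIF2α detected by AlphaScreen bead sandwich. Inhibition is computed versus borrelidin-only wells.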

In the next experiment the target is GCN2 kinase (Homo sapiens, UniProt Q9P2K8). Briefly: GCN2 enzyme inhibition assay (Transcreener ADP2 fluorescence polarization). The format is biochemical. The following applies: 280 μM ATP. Summed up:
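ADP formation read by Transcreener FP after a 1 h, 25 °C kinase reaction containing 280 μM ATP, 200 μM (RS)7 substrate and 4 nM GCN2, pH 7.5 Tris buffer. Compounds (0–8 μM final) were added 10 min before ATP. Percent inhibition gave IC50 and apparent Ki via tight-binding fit.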

Where [2] appears, read: compounds of Formula II, 4 nM GCN2 kinase.
Setting [3] is: Enzyme activity for compounds of Formula IV, Ki(app), 25° C.

intracellular GCN2 (phosphorylation of the GCN2 substrate eIF2α), sequence (Q9P2K8 whole entry): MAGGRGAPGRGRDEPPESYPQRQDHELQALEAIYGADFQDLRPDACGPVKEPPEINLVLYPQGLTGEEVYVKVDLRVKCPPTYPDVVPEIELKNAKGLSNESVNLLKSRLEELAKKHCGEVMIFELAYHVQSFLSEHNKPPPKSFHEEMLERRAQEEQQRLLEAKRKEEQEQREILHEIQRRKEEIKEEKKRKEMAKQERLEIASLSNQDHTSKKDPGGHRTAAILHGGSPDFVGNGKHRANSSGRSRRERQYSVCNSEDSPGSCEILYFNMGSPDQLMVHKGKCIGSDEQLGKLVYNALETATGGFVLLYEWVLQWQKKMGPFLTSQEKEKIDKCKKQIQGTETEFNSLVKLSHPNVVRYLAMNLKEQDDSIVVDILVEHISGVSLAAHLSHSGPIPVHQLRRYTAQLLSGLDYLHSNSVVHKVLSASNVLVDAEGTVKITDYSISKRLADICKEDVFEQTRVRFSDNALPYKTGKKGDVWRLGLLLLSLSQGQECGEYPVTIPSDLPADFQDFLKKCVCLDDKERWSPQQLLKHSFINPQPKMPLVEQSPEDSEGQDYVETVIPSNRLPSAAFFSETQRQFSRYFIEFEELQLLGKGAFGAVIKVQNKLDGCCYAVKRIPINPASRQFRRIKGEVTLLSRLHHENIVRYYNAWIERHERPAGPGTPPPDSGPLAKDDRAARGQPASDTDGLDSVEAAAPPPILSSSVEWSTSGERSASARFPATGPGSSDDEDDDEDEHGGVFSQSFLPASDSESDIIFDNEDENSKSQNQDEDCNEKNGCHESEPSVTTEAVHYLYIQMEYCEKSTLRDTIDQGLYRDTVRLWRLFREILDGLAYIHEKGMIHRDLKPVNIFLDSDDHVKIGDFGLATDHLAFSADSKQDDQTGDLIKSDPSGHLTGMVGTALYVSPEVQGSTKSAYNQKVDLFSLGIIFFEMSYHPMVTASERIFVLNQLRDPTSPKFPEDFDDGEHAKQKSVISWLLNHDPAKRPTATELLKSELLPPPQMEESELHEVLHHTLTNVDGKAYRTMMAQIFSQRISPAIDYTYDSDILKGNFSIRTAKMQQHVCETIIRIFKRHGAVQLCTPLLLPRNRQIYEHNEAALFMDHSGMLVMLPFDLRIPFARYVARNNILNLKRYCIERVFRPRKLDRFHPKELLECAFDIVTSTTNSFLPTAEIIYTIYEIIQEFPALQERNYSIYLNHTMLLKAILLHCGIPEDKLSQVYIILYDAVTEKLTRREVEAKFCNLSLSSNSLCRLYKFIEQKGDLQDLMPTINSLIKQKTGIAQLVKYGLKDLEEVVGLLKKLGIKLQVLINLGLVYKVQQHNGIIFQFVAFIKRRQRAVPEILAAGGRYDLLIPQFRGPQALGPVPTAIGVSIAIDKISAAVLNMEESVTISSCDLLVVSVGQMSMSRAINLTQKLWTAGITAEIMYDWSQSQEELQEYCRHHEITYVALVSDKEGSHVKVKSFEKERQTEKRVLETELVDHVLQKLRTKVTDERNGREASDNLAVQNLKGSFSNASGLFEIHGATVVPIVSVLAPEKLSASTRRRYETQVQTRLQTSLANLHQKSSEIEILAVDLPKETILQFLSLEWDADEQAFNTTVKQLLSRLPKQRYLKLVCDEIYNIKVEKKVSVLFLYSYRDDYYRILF
GCN2 kinase, sequence (Q9P2K8 whole entry): as above

`CC1CC(CNS(C)(=O)=O)C(C)N(c2cc(-c3cnc4ccc(C(F)F)nn34)ncn2)C1` (single isomer, unassigned) [II-545, N-((1-(6-(6-(Difluoromethyl)imidazo[1,2-b]pyridazin-3-yl)pyrimidin-4-yl)-2,5-dimethylpiperidin-3-yl)methyl)methanesulfonamide] came in with an IC50 in experiment [1] (compounds of Formula II) of 0.5 to 5 µM. At GCN2 kinase (setting [2]), this compound showed a Ki of 0.01 to 1 µM.
The corresponding values for `NC(=O)NCC1CCCN(c2cc(-c3cnc4ccc(C(F)F)nn34)ncn2)C1` (stereo not drawn) [II-215, 1-((1-(6-(6-(Difluoromethyl)imidazo[1,2-b]pyridazin-3-yl)pyrimidin-4-yl)piperidin-3-yl)methyl)urea] are 0.5 to 5 µM and 0.01 to 1 µM.
Compound `CC1C(c2cn[nH]c2)CCCN1c1ccnc(-c2cnc3cnc(C(F)(F)F)cn23)n1` (single isomer, unassigned) [IV-419, 3-(4-(2-Methyl-3-(1H-pyrazol-4-yl)piperidin-1-yl)pyrimidin-2-yl)-6-(trifluoromethyl)imidazo[1,2-a]pyrazine] had an IC50 in experiment [1] (compounds of Formula IV) of 0.5 to 5 µM. For the same compound, on GCN2 kinase (setting [3]), the Ki was in the range of 0.1 to 1 µM.
The compound `CS(=O)(=O)NC[C@@H]1CN(c2cc(-c3cnc4ccc(C(F)F)nn34)ncn2)CC(=O)N1` [II-25, (S)—N-((4-(6-(6-(Difluoromethyl)imidazo[1,2-b]pyridazin-3-yl)pyrimidin-4-yl)-6-oxopiperazin-2-yl)methyl)methanesulfonamide] had a concentration for half-maximal inhibition (IC50) in experiment [1] (compounds of Formula II) of more than 5 µM. The Ki at GCN2 kinase (setting [2]) was 0.01 to 1 µM.
Take `CC1CN(c2cc(-c3cnc4ccc(C(F)F)nn34)ccn2)CC(CNS(C)(=O)=O)O1` (stereo not drawn) [II-119, N-((4-(4-(6-(Difluoromethyl)imidazo[1,2-b]pyridazin-3-yl)pyridin-2-yl)-6-methylmorpholin-2-yl)methyl)methanesulfonamide]: the half-maximal inhibitory concentration (IC50) in experiment [1] (compounds of Formula II) is less than 0.5 µM. Further, the Ki at GCN2 kinase (setting [2]) is less than 0.01 µM.
Turning to `Brc1cn2c(-c3nccc(N4CCCC(c5c[nH]cn5)C4)n3)cnc2cn1` (single isomer, unassigned) [IV-362, 3-(4-(3-(1H-Imidazol-4-yl)piperidin-1-yl)pyrimidin-2-yl)-6-bromoimidazo[1,2-a]pyrazine], in experiment [1] (compounds of Formula IV), the IC50 was 0.5 to 5 µM. On GCN2 kinase (setting [3]), the Ki was in the range of 0.01 to 0.1 µM.
The compound `OCC12CC1CN(c1cc(-c3cnc4ccc(C(F)F)nn34)ncn1)C2` (stereo not drawn) [II-438, (3-(6-(6-(Difluoromethyl)imidazo[1,2-b]pyridazin-3-yl)pyrimidin-4-yl)-3-azabicyclo[3.1.0]hexan-1-yl)methanol] displayed an IC50 in experiment [1] (compounds of Formula II) of 0.5 to 5 µM. Also, the Ki on GCN2 kinase (setting [2]) lay in the range of 0.01 to 1 µM.
Compound `CC1CC(C(N)=O)C(C)N(c2cc(-c3cnc4ccc(C(F)(F)F)nn34)ncn2)C1` (racemic) [II-719, 2,5-Dimethyl-1-[6-[6-(trifluoromethyl)imidazo[1,2-b]pyridazin-3-yl]pyrimidin-4-yl]piperidine-3-carboxamide] yielded an IC50 in experiment [1] (compounds of Formula II) of 0.5 to 5 µM. Besides, the Ki on GCN2 kinase (setting [2]) lay within 0.01 to 1 µM.
For `FC(F)(F)c1cn2c(-c3nccc(N4CCCC(c5cn[nH]c5)C4)n3)cnc2cn1` (single isomer, unassigned) [IV-546, 3-(4-(3-(1H-Pyrazol-4-yl)piperidin-1-yl)pyrimidin-2-yl)-6-(trifluoromethyl)imidazo[1,2-a]pyrazine], the IC50 in experiment [1] (compounds of Formula IV) is less than 0.5 µM. The same compound gave a Ki at GCN2 kinase (setting [3]) of less than 0.01 µM.
The compound `CC1CCC(CNS(C)(=O)=O)CN1c1cc(-c2cnc3ccc(C(F)F)nn23)ncn1` (stereo not drawn) [II-245, N-((1-(6-(6-(Difluoromethyl)imidazo[1,2-b]pyridazin-3-yl)pyrimidin-4-yl)-6-methylpiperidin-3-yl)methyl)methanesulfonamide] registered an IC50 in experiment [1] (compounds of Formula II) of more than 5 µM. Moreover, at GCN2 kinase (setting [2]), the Ki lay within 0.01 to 1 µM.
The corresponding values for `CS(C)(=O)=N[C@H]1CCCN(c2cc(-c3cnc4ccc(C(F)F)nn34)ncn2)C1` (single isomer, unassigned) [II-502] are less than 0.5 µM and 0.01 to 1 µM.
On to `FC(F)c1cn2c(-c3nccc(N4CCC(c5ccncc5)C4)n3)cnc2cn1` (stereo not drawn) [IV-68, 6-(Difluoromethyl)-3-(4-(3-(pyridin-4-yl)pyrrolidin-1-yl)pyrimidin-2-yl)imidazo[1,2-a]pyrazine], for which the IC50 in experiment [1] (compounds of Formula IV) is more than 5 µM. Further, on GCN2 kinase (setting [3]), the Ki was 0.1 to 1 µM.
In experiment [1] (compounds of Formula IV), `FC(F)(F)c1cn2c(-c3nccc(N4CCC5(CC4)CNC5)n3)cnc2cn1` [IV-692, 3-(4-(2,7-Diazaspiro[3.5]nonan-7-yl)pyrimidin-2-yl)-6-(trifluoromethyl)imidazo[1,2-a]pyrazine] gave an IC50 of more than 5 µM. The same compound displayed a Ki at GCN2 kinase (setting [3]) of 0.1 to 1 µM.
As to `CS(=O)(=O)CCN1CCCC(c2cc(-c3cnc4ccc(C(F)F)nn34)ncn2)C1` (stereo not drawn) [II-48, 6-(Difluoromethyl)-3-(6-(1-(2-(methylsulfonyl)ethyl)piperidin-3-yl)pyrimidin-4-yl)imidazo[1,2-b]pyridazine], in experiment [1] (compounds of Formula II), the concentration for half-maximal inhibition (IC50) was more than 5 µM. The Ki at GCN2 kinase (setting [2]) lay in the range of 0.01 to 1 µM.
For `FC(F)(F)c1cn2c(-c3nccc(N4CCOC(c5cn[nH]c5)C4)n3)cnc2cn1` (stereo not drawn) [IV-3, 2-(1H-Pyrazol-4-yl)-4-(2-(6-(trifluoromethyl)imidazo[1,2-a]pyrazin-3-yl)pyrimidin-4-yl)morpholine], the IC50 in experiment [1] (compounds of Formula IV) is less than 0.5 µM. Besides, at GCN2 kinase (setting [3]), the Ki is less than 0.01 µM.
`FC(F)(F)c1cn2c(-c3nccc(N4CCC(Oc5cn[nH]c5)C4)n3)cnc2cn1` (stereo not drawn) [IV-695, 3-(4-(3-((1H-Pyrazol-4-yl)oxy)pyrrolidin-1-yl)pyrimidin-2-yl)-6-(trifluoromethyl)imidazo[1,2-a]pyrazine] registered an IC50 in experiment [1] (compounds of Formula IV) of more than 5 µM. For the same compound, at GCN2 kinase (setting [3]), the Ki fell in the range of 0.01 to 0.1 µM.
In experiment [1] (compounds of Formula IV), `OCc1ccc(-c2ccnc(-c3cnc4cnc(C(F)F)cn34)n2)s1` [IV-175, (5-(2-(6-(Difluoromethyl)imidazo[1,2-a]pyrazin-3-yl)pyrimidin-4-yl)thiophen-2-yl)methanol] showed an IC50 of more than 5 µM. On GCN2 kinase (setting [3]), this compound registered a Ki of 0.1 to 1 µM.
For the compound `Cc1n[nH]cc1[C@H]1C[C@@H](C)CN(c2nccc(-c3cnc4cnc(C(F)(F)F)cn34)n2)C1` [IV-758, 3-(2-((3R,5R)-3-methyl-5-(3-methyl-1H-pyrazol-4-yl)piperidin-1-yl)pyrimidin-4-yl)-6-(trifluoromethyl)imidazo[1,2-a]pyrazine], the IC50 in experiment [1] (compounds of Formula IV) was less than 0.5 µM; against GCN2 kinase (compounds of Formula IV, 4 nM GCN2 kinase), 0.01 to 1 µM.
In experiment [1] (compounds of Formula II), `CS(=O)(=O)NC1CCCN(c2cc(-c3cnc4ccc(C(F)F)nn34)ncn2)C1` (stereo not drawn) [II-362, N-(1-(6-(6-(Difluoromethyl)imidazo[1,2-b]pyridazin-3-yl)pyrimidin-4-yl)piperidin-3-yl)methanesulfonamide] showed a half-maximal inhibitory concentration (IC50) of 0.5 to 5 µM. For the same compound, the Ki at GCN2 kinase (setting [2]) was in the range of 0.01 to 1 µM.
Compound `CC1CN(c2ccnc(-c3cnc4cnc(C(F)(F)F)cn34)n2)C(C)C(c2c[nH]cn2)O1` (single isomer, unassigned) [IV-639, 2-(1H-Imidazol-4-yl)-3,6-dimethyl-4-(2-(6-(trifluoromethyl)imidazo[1,2-a]pyrazin-3-yl)pyrimidin-4-yl)morpholine] came in with a 50% inhibitory concentration (IC50) in experiment [1] (compounds of Formula IV) of less than 0.5 µM. The Ki on GCN2 kinase (setting [3]) was less than 0.01 µM.
As for `CS(=O)(=O)NCC1CCCN(c2cc(-c3cnc4ccc(C(F)F)nn34)cc(N3CCOCC3)n2)C1` (stereo not drawn) [II-66, N-((1-(4-(6-(Difluoromethyl)imidazo[1,2-b]pyridazin-3-yl)-6-morpholinopyridin-2-yl)piperidin-3-yl)methyl)methanesulfonamide], the half-inhibitory concentration (IC50) in experiment [1] (compounds of Formula II) is 0.5 to 5 µM. The compound also had a Ki on GCN2 kinase (setting [2]) of less than 0.01 µM.
In turn, `CC1CC(CNS(C)(=O)=O)C(C)N(c2cc(-c3cnc4ccc(C(F)F)nn34)ncn2)C1` (stereo not drawn) [II-511, N-((1-(6-(6-(Difluoromethyl)imidazo[1,2-b]pyridazin-3-yl)pyrimidin-4-yl)-2,5-dimethylpiperidin-3-yl)methyl)methanesulfonamide] came in with a 50% inhibitory concentration (IC50) in experiment [1] (compounds of Formula II) of less than 0.5 µM. Besides, at GCN2 kinase (setting [2]), the Ki was less than 0.01 µM.
In experiment [1] (compounds of Formula II), `OC[C@@H]1C[C@@H](C(F)(F)F)CN(c2cc(-c3cnc4ccc(C(F)F)nn34)ncn2)C1` [II-314, ((3R,5R)-1-(6-(6-(Difluoromethyl)imidazo[1,2-b]pyridazin-3-yl)pyrimidin-4-yl)-5-(trifluoromethyl)piperidin-3-yl)methanol] showed an IC50 of more than 5 µM. This compound also had a Ki at GCN2 kinase (setting [2]) of 0.01 to 1 µM.
Compound `CC1CN(c2ccnc(-c3cnc4cnc(C(F)(F)F)cn34)n2)CC(c2cn[nH]c2C(F)(F)F)N1` (single isomer, unassigned) [IV-474, 3-(4-(3-Methyl-5-(5-(trifluoromethyl)-1H-pyrazol-4-yl)piperazin-1-yl)pyrimidin-2-yl)-6-(trifluoromethyl)imidazo[1,2-a]pyrazine] came in with a 50% inhibitory concentration (IC50) in experiment [1] (compounds of Formula IV) of less than 0.5 µM. At GCN2 kinase (setting [3]), the Ki was less than 0.01 µM.
`CC1C(CNS(C)(=O)=O)CCN1c1cc(-c2cnc3ccc(C(F)F)nn23)ncn1` (stereo not drawn) [II-244, N-((1-(6-(6-(Difluoromethyl)imidazo[1,2-b]pyridazin-3-yl)pyrimidin-4-yl)-2-methylpyrrolidin-3-yl)methyl)methanesulfonamide] had a half-maximal inhibitory concentration (IC50) in experiment [1] (compounds of Formula II) of more than 5 µM. This compound also returned a Ki at GCN2 kinase (setting [2]) of 0.01 to 1 µM.
With `CS(=O)(=O)NC1CCN(c2cc(-c3cnc4ccc(C(F)F)nn34)ncn2)C1` (stereo not drawn) [II-199, N-(1-(6-(6-(Difluoromethyl)imidazo[1,2-b]pyridazin-3-yl)pyrimidin-4-yl)pyrrolidin-3-yl)methanesulfonamide], in experiment [1] (compounds of Formula II), the IC50 was more than 5 µM. Besides, the Ki at GCN2 kinase (setting [2]) was 0.01 to 1 µM.
The like results for `CC1C(CNS(C)(=O)=O)CCCN1c1cc(-c2cnc3ccc(C(F)F)nn23)ncn1` (single isomer, unassigned) [II-266, N-((1-(6-(6-(Difluoromethyl)imidazo[1,2-b]pyridazin-3-yl)pyrimidin-4-yl)-2-methylpiperidin-3-yl)methyl)methanesulfonamide] were, in that order, less than 0.5 µM and less than 0.01 µM.

Values taken from patent US10988477B2 (Merck Patent GmbH, priority 2018, dated 2021).
